Measured values from patent US6914064B2, “1,4-Disubstituted piperazine derivatives useful as uro-selective α1-adrenoceptor blockers” (Ranbaxy Laboratories Limited, priority 2000, dated 2005).
Structures can show the parent of a compound that is named as a salt.

Work on `Cc1ccccc1N1CCN(CCCN2C(=O)[C@H]3CC=CC[C@H]3C2=O)CC1` (as salt: hydrochloride) [Compound 03, 2-[3-{4-(2-Methylphenyl)piperazin-1-yl}propyl]-3a,4,7,7a-tetrahydro-1H-isoindole-1,3(2H)-dione hydrochlolide] yielded a melting point of 186 to 187 °C.

In the case of `O=C1[C@H]2CC=CC[C@H]2C(=O)N1CCCN1CCN(C(c2ccc(F)cc2)c2ccc(F)cc2)CC1` (as salt: hydrochloride) [Compound 19, 2-[3-{4-(Bis-4-fluorophenyl)methylpiperazin-1-yl}propyl]-3a,4,7,7a-tetrahydro-1H-isoindole-1,3(2H)-dione hydrochloride], the melting point is reported as 235 to 236 °C.
